According to patent US12466839B2, “Allosteric AKT inhibitors for use in the treatment of Hereditary Hemorrhagic Telangiectasia” (VADERIS THERAPEUTICS AG, priority 2020, dated 2025):

Assays:
full length AKT1 = full length AKT1 (Homo sapiens, UniProt P31749); assay: Biochemical kinase assay
Kv1.5 = Kv1.5 (Homo sapiens, UniProt P22460); assay: Cardiac ion channel profile; type: cell-based
minK (Homo sapiens) = assay: Cardiac ion channel profile; type: cell-based
AKT = AKT inhibition in primary lung endothelial cells with normal Eng expression (western blot); type: cell-based; conditions: Mus musculus, Endothelial cell; lung ECs from controls with normal level of Eng expression; VEGF-A stimulation
Procedure: Lungs from Engflox/flox pups were surgically removed, rinsed in ice-cold DMEM and endothelial cells were isolated as described in Galaris et al., (2021) “In vitro Three-Dimensional Sprouting Assay of Angiogenesis using Mouse Embryonic Stem Cells for Vascular Disease Modeling and Drug Testing” J Vis Exp (171). In summary, tissues were minced by the use of scissors, digested in DMEM-3 mg·ml-1 Collagenase A (10103586001, Roche) for 15 min at 37° C. and then filtered through a 70-μm strainer. The cell suspension was centrifuged at 200 g for 5 min and CD45+ cells were removed using Dynabeads sheep anti-Rat IgG (11035, Invitrogen) coated with rat anti-mouse CD45 antibody (550539, BD Pharmigen). Endothelial cells were sorted using Dynabeads sheep anti-Rat IgG (11035, Invitrogen) coated with rat anti-mouse PECAM1 antibody (550274, BD Pharmigen) according to the manufacturer's instructions. After washing 5 times with DMEM-0.1% BSA, cells were seeded in 6 well plates. Lung and liver ECs were maintained for two-three passages in Endothelial Cell Growth Medium 2 (C-22011, PromoCell) complemented with Fetal Calf Serum, Human Epidermal Growth Factors, Basic Fibroblast Growth Factor, Insulin like Growth Factor, Human Vascular Endothelial Growth Factor-165, Ascorbic acid, Heparin and Hydrocortisone (C-39211, SupplementPack EC GM2, PromoCell). […]

MCF7 tumor cells = assay: IC50 in MCF7 tumor cells in vitro; type: cell-based; conditions: Homo sapiens
BLT1 = biological target: T1, BLT1 (Homo sapiens, UniProt Q15722); assay: Millipore Drug Discovery Safety and Liability Panel; type: cell-based
T1 construct: purchased Millipore

C5aR = biological target: T2, C5aR (Homo sapiens, UniProt P21730); assay: as above; type: cell-based
T2 construct: purchased Millipore

CB1 = biological target: T3, CB1 (Homo sapiens, UniProt P21554); assay: as above; type: cell-based
T3 construct: purchased Millipore

D5 = biological target: T4, D5 (Homo sapiens, UniProt P21918); assay: as above; type: cell-based
T4 construct: purchased Millipore

DP = biological target: T5, DP (Homo sapiens, UniProt Q13258); assay: as above; type: cell-based
T5 construct: purchased Millipore

GPR14 = biological target: T6, GPR14 (Homo sapiens, UniProt Q9UKP6); assay: as above; type: cell-based
T6 construct: purchased Millipore

H3 = biological target: T7, H3 (Homo sapiens, UniProt Q9Y5N1); assay: as above; type: cell-based
T7 construct: purchased Millipore

IP1 = biological target: T8, IP1 (Homo sapiens, UniProt P43119); assay: as above; type: cell-based
T8 construct: purchased Millipore

NK1 = biological target: T9, NK1 (Homo sapiens, UniProt P25103); assay: as above; type: cell-based
T9 construct: purchased Millipore

NTR1 = biological target: T10, NTR1 (Homo sapiens, UniProt P30989); assay: as above; type: cell-based
T10 construct: Millipore

P2Y1 = biological target: T11, P2Y1 (Homo sapiens, UniProt P47900); assay: as above; type: cell-based
T11 construct: Millipore

PAF = biological target: T12, PAF (Homo sapiens, UniProt P25105); assay: as above; type: cell-based
T12 construct: Millipore

PRP = biological target: T13, PRP (Homo sapiens, UniProt P49683); assay: as above; type: cell-based
T13 construct: Millipore

V2 = biological target: T14, V2 (Homo sapiens, UniProt P30518); assay: as above; type: cell-based
T14 construct: Millipore

[1] = read-out: ANTAGONIST mean % inhibition
[2] = read-out: AGONIST mean % increase in activity

T14 sequence (P30518 whole entry): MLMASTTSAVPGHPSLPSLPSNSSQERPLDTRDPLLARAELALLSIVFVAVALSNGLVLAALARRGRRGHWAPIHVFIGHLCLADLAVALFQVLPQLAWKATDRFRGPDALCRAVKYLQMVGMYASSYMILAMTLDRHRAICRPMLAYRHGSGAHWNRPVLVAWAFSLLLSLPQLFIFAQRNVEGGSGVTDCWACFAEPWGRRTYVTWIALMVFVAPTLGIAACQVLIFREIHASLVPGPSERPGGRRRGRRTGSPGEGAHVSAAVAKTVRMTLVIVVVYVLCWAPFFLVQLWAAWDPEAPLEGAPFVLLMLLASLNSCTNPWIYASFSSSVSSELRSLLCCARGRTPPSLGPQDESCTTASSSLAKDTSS
T4 sequence (P21918 whole entry): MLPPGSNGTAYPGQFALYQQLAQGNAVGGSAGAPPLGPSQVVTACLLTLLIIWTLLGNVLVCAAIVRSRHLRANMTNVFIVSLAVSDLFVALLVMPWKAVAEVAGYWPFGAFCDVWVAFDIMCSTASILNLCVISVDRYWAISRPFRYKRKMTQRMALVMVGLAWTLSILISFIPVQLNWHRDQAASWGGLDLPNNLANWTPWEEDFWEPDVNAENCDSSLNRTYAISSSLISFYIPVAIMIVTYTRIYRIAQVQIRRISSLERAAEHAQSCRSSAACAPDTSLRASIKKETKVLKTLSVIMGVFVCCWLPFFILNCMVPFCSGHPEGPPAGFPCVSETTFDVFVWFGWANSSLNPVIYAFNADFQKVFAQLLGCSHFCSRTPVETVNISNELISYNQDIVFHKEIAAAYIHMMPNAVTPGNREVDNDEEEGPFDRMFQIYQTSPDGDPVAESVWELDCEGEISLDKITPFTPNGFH
T6 sequence (Q9UKP6 whole entry, species assumed): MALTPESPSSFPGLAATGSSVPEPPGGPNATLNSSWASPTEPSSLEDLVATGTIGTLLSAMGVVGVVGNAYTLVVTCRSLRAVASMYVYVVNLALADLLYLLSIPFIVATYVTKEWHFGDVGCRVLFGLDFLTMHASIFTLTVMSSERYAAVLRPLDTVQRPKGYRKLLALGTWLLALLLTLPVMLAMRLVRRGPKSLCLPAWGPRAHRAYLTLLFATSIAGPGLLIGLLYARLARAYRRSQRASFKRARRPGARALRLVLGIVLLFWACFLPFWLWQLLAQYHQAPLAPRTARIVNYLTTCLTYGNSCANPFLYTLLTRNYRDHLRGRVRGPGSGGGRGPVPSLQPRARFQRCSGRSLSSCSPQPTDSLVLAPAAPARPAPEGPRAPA
T12 sequence (P25105 whole entry): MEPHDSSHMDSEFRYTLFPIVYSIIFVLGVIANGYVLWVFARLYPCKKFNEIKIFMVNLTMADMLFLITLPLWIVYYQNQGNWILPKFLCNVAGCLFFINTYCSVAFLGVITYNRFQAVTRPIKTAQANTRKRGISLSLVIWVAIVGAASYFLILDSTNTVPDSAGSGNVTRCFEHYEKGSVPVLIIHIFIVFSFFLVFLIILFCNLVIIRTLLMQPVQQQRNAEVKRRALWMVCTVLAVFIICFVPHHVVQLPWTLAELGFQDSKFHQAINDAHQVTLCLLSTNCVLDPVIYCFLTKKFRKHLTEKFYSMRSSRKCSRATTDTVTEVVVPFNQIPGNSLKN
T9 sequence (P25103 whole entry): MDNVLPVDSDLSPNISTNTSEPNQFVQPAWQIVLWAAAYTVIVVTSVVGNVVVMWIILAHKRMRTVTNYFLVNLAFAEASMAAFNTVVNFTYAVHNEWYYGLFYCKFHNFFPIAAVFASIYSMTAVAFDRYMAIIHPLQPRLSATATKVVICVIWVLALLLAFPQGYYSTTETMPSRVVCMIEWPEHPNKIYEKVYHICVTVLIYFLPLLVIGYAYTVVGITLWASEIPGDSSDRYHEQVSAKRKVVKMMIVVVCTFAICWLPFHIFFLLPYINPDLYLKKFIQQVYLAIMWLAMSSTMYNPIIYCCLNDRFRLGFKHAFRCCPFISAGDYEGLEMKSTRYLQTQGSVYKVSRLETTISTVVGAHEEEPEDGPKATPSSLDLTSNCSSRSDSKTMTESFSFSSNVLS
T3 sequence (P21554 whole entry): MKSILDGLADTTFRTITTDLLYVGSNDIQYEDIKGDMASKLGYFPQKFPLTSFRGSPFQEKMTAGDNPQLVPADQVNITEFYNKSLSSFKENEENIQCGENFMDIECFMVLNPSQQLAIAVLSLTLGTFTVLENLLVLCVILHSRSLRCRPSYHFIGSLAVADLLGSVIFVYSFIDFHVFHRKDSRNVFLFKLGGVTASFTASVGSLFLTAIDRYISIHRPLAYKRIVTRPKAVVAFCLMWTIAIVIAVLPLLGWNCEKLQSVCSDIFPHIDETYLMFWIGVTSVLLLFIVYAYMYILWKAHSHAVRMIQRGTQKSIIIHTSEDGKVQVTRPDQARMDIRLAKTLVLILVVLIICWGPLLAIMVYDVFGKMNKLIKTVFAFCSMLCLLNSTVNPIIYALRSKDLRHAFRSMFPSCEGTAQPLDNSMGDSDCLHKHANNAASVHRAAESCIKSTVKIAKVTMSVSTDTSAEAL
T10 sequence (P30989 whole entry, species assumed): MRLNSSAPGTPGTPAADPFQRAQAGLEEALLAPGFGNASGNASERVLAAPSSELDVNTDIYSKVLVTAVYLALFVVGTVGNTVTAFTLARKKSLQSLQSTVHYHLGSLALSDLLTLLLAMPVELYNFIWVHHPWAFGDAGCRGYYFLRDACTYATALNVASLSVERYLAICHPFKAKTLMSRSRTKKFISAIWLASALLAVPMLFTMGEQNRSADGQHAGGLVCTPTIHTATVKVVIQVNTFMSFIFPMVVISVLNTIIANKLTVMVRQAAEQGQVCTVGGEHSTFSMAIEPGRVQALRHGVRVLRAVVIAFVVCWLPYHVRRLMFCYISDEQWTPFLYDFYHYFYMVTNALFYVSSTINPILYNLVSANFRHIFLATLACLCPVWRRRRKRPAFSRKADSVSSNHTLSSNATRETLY
T7 sequence (Q9Y5N1 whole entry): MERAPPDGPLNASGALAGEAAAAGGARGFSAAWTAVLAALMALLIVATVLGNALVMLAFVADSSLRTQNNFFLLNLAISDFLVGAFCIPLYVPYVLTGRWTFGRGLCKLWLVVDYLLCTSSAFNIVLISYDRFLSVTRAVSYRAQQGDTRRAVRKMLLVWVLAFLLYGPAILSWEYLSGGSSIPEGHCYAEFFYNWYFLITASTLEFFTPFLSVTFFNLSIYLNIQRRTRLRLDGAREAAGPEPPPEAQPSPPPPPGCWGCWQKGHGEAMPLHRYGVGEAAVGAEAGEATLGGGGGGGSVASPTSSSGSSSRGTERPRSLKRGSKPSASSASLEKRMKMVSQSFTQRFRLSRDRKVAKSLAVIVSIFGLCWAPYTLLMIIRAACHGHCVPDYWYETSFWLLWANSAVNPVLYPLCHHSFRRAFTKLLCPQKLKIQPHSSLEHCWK
T5 sequence (Q13258 whole entry): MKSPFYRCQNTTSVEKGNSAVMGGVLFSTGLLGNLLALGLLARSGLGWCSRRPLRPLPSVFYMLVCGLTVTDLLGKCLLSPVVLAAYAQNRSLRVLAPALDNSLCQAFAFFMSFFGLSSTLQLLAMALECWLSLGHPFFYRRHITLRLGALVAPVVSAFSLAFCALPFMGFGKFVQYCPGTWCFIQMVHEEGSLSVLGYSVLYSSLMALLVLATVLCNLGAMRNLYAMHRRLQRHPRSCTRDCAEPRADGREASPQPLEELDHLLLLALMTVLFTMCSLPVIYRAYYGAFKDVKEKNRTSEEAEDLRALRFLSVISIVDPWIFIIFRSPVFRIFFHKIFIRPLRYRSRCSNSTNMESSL
T1 sequence (Q15722 whole entry): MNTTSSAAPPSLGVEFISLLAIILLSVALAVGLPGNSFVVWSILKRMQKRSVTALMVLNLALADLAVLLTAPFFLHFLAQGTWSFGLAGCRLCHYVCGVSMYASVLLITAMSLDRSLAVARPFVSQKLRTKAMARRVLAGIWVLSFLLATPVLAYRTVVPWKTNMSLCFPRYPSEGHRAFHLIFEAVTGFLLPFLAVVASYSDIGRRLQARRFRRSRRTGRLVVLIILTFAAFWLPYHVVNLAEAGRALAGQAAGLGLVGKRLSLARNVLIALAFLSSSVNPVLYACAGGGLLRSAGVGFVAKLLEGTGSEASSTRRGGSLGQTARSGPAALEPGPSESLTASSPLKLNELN
T13 sequence (P49683 whole entry): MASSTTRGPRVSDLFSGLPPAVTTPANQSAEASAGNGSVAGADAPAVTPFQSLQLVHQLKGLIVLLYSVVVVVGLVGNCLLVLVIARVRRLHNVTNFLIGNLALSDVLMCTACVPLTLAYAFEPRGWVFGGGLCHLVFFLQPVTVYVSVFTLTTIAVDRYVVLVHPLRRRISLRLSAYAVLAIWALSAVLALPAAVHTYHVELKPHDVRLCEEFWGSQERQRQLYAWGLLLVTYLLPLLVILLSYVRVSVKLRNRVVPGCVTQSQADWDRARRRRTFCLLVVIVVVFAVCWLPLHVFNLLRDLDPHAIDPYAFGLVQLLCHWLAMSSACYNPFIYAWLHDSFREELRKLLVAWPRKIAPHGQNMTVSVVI
T11 sequence (P47900 whole entry, species assumed): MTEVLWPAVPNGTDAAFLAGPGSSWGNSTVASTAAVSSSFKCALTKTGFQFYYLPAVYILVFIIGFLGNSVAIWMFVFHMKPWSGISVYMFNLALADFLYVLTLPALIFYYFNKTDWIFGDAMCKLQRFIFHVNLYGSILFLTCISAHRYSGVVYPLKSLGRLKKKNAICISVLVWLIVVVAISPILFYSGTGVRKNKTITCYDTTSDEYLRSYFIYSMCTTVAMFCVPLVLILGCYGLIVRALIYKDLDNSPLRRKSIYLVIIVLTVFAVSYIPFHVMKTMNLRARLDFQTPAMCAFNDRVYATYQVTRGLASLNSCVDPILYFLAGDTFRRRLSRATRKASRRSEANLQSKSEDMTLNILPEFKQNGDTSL

Q: What does the source list for CCN1C(=O)COc2nc(-c3ccc(C4(N)CC(O)C4)cc3)c(-c3ccccc3)cc21.O=C(O)C(O)C(O)C(=O)O [VAD044, 6-(4-(1-amino-3-hydroxycyclobutyl)phenyl)-1-ethyl-7-phenyl-1H-pyrido[2,3-b][1,4]oxazin-2(3H)-one L-tartrate]?
A: IC50 (full length AKT1): 125 nM; inhibition at 10 µM (Kv1.5): < 25%; inhibition at 10 µM (minK (Homo sapiens)): < 25%; IC50 (AKT): 55 nM; IC50 (MCF7 tumor cells): ~50 nM; activation at 10 µM (BLT1; BLT1, 10 μM, read-out: AGONIST mean % increase in activity): -0.2%; inhibition at 10 µM (BLT1; [1]): 5.6%; activation at 10 µM (C5aR; C5aR, 10 μM, read-out: AGONIST mean % increase in activity): -1.2%; inhibition at 10 µM (C5aR; [1]): 1.5%; activation at 10 µM (CB1; CB1, 10 μM, read-out: AGONIST mean % increase in activity): -0.5%; inhibition at 10 µM (CB1; [1]): -4.1%; activation at 10 µM (D5; [2]): -0.8%; inhibition at 10 µM (D5; [1]): 35.4%; activation at 10 µM (DP; DP, 10 μM, read-out: AGONIST mean % increase in activity): -1.7%; inhibition at 10 µM (DP; [1]): 5.8%; activation at 10 µM (GPR14; [2]): 29.5%; inhibition at 10 µM (GPR14; [1]): 52.9%; activation at 10 µM (H3; H3, 10 μM, read-out: AGONIST mean % increase in activity): -0.6%; inhibition at 10 µM (H3; [1]): 3.5%; activation at 10 µM (IP1; IP1, 10 μM, read-out: AGONIST mean % increase in activity): 1.1%; inhibition at 10 µM (IP1; [1]): -2.6%; activation at 10 µM (NK1; NK1, 10 μM, read-out: AGONIST mean % increase in activity): -1.4%; inhibition at 10 µM (NK1; [1]): 2.4%; activation at 10 µM (NTR1; NTR1, 10 μM, read-out: AGONIST mean % increase in activity): -0.6%; inhibition at 10 µM (NTR1; [1]): 6.1%; AGONIST mean % increase in activity (P2Y1; 10 μM): 1%; inhibition at 10 µM (P2Y1; [1]): 50.6%; activation at 10 µM (PAF; [2]): -0.9%; inhibition at 10 µM (PAF; [1]): 21%; activation at 10 µM (PRP; [2]): -0.5%; inhibition at 10 µM (PRP; [1]): 23.2%; activation at 10 µM (V2; [2]): -1.5%; inhibition at 10 µM (V2; [1]): 22.8%
